Data from the supplement of paper PMC11208160.

Experiment: recombinant barcode read abundance after kanamycin selection (control-corrected) (log10(CPM+1)); higher = more efficient recombination; sequences stand for … in AGTGCAGAGAAAATCGGCCAGTTTTCTCTGCCTGCAGTCCGCATGCCGT…ATTTATGCAGCGGACTGCCTTTCTCCCAAAGTGATAAACCGGACAGTATCATGGACCGGTTTTCCCGGTAATCCGTATTTGCAAGGTTGGTTTCACT; site = the 11-nt target
Outline: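 Oligos holding a promoter, target, barcode and the J23119-driven first 104 bases of the bridge RNA were Gibson-cloned into a vector that supplied the other 73 bp plus a T7-inducible recombinase. This library was co-electroporated with a donor plasmid into E. coli. Two replicates went on chloramphenicol/ampicillin LB agar (control) and two on chloramphenicol/ampicillin/kanamycin with 0.1 mM IPTG. Recombination efficiency is read from averaged, control-corrected barcode counts per million at recombinant junctions, reported as log10(CPM+1).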

Sequence | recombinant barcode read abundance (log10)
TCTACCCGCTGGGTTCTAACCTGTTGCTGAG [TCTACCCCTCA_LTGcore_GC_RTGcore_CT] (site TCTACCCCTCA) (LTG core: GC, RTG core: CT) | 0.045
TCTACCCGTTGGGTTCTAACCTGTTGCTGAG [TCTACCCCTCA_LTGcore_GT_RTGcore_CT] (site TCTACCCCTCA) (LTG core: GT, RTG core: CT) | 0.149
TCTACCCTATGGGTTCTAACCTGTTGCTGTA [TCTACCCCTCA_LTGcore_TA_RTGcore_TA] (site TCTACCCCTCA) (LTG core: TA, RTG core: TA) | 0.0877
TCTACCCTTTGGGTTCTAACCTGTTGCTGAA [TCTACCCCTCA_LTGcore_TT_RTGcore_TT] (site TCTACCCCTCA) (LTG core: TT, RTG core: TT) | 0.0207
TCTACCCTTTGGGTTCTAACCTGTTGCTGAG [TCTACCCCTCA_LTGcore_TT_RTGcore_CT] (site TCTACCCCTCA) (LTG core: TT, RTG core: CT) | 0.0279
TGATACCAGTGGGTTCTAACCTGTTGCGTAG [TGATACCCTAC_LTGcore_AG_RTGcore_CT] (site TGATACCCTAC) (LTG core: AG, RTG core: CT) | 0.0989
TGATACCATTGGGTTCTAACCTGTTGCGTAG [TGATACCCTAC_LTGcore_AT_RTGcore_CT] (site TGATACCCTAC) (LTG core: AT, RTG core: CT) | 0.0337
TGATACCCGTGGGTTCTAACCTGTTGCGTAG [TGATACCCTAC_LTGcore_CG_RTGcore_CT] (site TGATACCCTAC) (LTG core: CG, RTG core: CT) | 0.907
TGATACCCGTGGGTTCTAACCTGTTGCGTCG [TGATACCCTAC_LTGcore_CG_RTGcore_CG] (site TGATACCCTAC) (LTG core: CG, RTG core: CG) | 0.0552
TGATACCCTTGGGTTCTAACCTGTTGCGTTG [TGATACCCTAC_LTGcore_CT_RTGcore_CA] (site TGATACCCTAC) (LTG core: CT, RTG core: CA) | 1.25
TGATACCGCTGGGTTCTAACCTGTTGCGTGC [TGATACCCTAC_LTGcore_GC_RTGcore_GC] (site TGATACCCTAC) (LTG core: GC, RTG core: GC) | 0.107
TGATACCGGTGGGTTCTAACCTGTTGCGTCC [TGATACCCTAC_LTGcore_GG_RTGcore_GG] (site TGATACCCTAC) (LTG core: GG, RTG core: GG) | 0.115
TGATACCTGTGGGTTCTAACCTGTTGCGTAG [TGATACCCTAC_LTGcore_TG_RTGcore_CT] (site TGATACCCTAC) (LTG core: TG, RTG core: CT) | 0.064
TGTATTCCCTGGGTTCTAACCTGTTGCCTGG [TGTATTCCTAG_LTGcore_CC_RTGcore_CC] (site TGTATTCCTAG) (LTG core: CC, RTG core: CC) | 0.267
TGTATTCCTTGGGTTCTAACCTGTTGCCTAT [TGTATTCCTAG_LTGcore_CT_RTGcore_AT] (site TGTATTCCTAG) (LTG core: CT, RTG core: AT) | 0.192
TGTATTCCTTGGGTTCTAACCTGTTGCCTCC [TGTATTCCTAG_LTGcore_CT_RTGcore_GG] (site TGTATTCCTAG) (LTG core: CT, RTG core: GG) | 0.364
TGTATTCCTTGGGTTCTAACCTGTTGCCTGT [TGTATTCCTAG_LTGcore_CT_RTGcore_AC] (site TGTATTCCTAG) (LTG core: CT, RTG core: AC) | 0.0232
TGTATTCGATGGGTTCTAACCTGTTGCCTTC [TGTATTCCTAG_LTGcore_GA_RTGcore_GA] (site TGTATTCCTAG) (LTG core: GA, RTG core: GA) | 0.138
TGTATTCGGTGGGTTCTAACCTGTTGCCTCC [TGTATTCCTAG_LTGcore_GG_RTGcore_GG] (site TGTATTCCTAG) (LTG core: GG, RTG core: GG) | 0.0849
TGTATTCGTTGGGTTCTAACCTGTTGCCTAC [TGTATTCCTAG_LTGcore_GT_RTGcore_GT] (site TGTATTCCTAG) (LTG core: GT, RTG core: GT) | 0.00818
TGTATTCTATGGGTTCTAACCTGTTGCCTTA [TGTATTCCTAG_LTGcore_TA_RTGcore_TA] (site TGTATTCCTAG) (LTG core: TA, RTG core: TA) | 0.0243
TGTATTCTTTGGGTTCTAACCTGTTGCCTAG [TGTATTCCTAG_LTGcore_TT_RTGcore_CT] (site TGTATTCCTAG) (LTG core: TT, RTG core: CT) | 0.242
TTATAAACTTGGGTTCTAACCTGTTGCCTAG [TTATAAACTAG_LTGcore_CT_RTGcore_CT] (site TTATAAACTAG) (LTG core: CT, RTG core: CT) | 0.894
TTATAAACTTGGGTTCTAACCTGTTGCCTCG [TTATAAACTAG_LTGcore_CT_RTGcore_CG] (site TTATAAACTAG) (LTG core: CT, RTG core: CG) | 0.154
TTATAAACTTGGGTTCTAACCTGTTGCCTGC [TTATAAACTAG_LTGcore_CT_RTGcore_GC] (site TTATAAACTAG) (LTG core: CT, RTG core: GC) | 0.178
TTATAAACTTGGGTTCTAACCTGTTGCCTTG [TTATAAACTAG_LTGcore_CT_RTGcore_CA] (site TTATAAACTAG) (LTG core: CT, RTG core: CA) | 0.173
TTATAAAGATGGGTTCTAACCTGTTGCCTTC [TTATAAACTAG_LTGcore_GA_RTGcore_GA] (site TTATAAACTAG) (LTG core: GA, RTG core: GA) | 0.0936
TTATAAAGGTGGGTTCTAACCTGTTGCCTCC [TTATAAACTAG_LTGcore_GG_RTGcore_GG] (site TTATAAACTAG) (LTG core: GG, RTG core: GG) | 0.154
TTATAAATCTGGGTTCTAACCTGTTGCCTGA [TTATAAACTAG_LTGcore_TC_RTGcore_TC] (site TTATAAACTAG) (LTG core: TC, RTG core: TC) | 0.244
